Results: article PMC5399447, “Neuroprotective pentapeptide CN-105 is associated with reduced sterile inflammation and improved functional outcomes in a traumatic brain injury murine model” (Scientific Reports, 2017)

Assays:
[1] = tested on: murine closed head injury model (TBI); assay: Rotarod vestibulomotor function after closed head injury; type: in vivo, mouse; details: for Rotarod functional performance compared to vehicle: n = 11-12/group
Description: The murine closed head injury model used in this study was previously described. The closed head impact results in injury to selectively vulnerable neurons in cortex and hippocampus, and is associated with vestibulomotor deficits and long term neurocognitive deficits. Although animals do lose body weight, they rapidly regain spontaneous ventilation, righting reflex, and the ability to ambulate. Briefly, 12–14 week-old C57Bl/6 J male mice(Jackson Laboratories, Bar Harbor, ME) were used. The trachea was intubated after anesthesia induction with 4.6% isoflurane and the lungs were mechanically ventilated with 1.6% isoflurane in 30% O2/70% N2. Core body temperature was maintained at 37 °C through a rectal probe. To avoid basilar skull fracture, ear bars are not used. The animal was secured in a stereotactic device in a prone position on a molded acrylic cast with surgical tape across the shoulders. The intubation tube was also secured to the acrylic cast with tape. The acrylic cast is designed to allow the mouse to have 3 mm of space below the head to allow for acceleration/decelaration of the head in this position. The head was shaved and the scalp was incised to expose the skull and identify anatomical landmarks. A concave 3-mm metallic disc was adhered to the skull immediately caudal to bregma. A 2.0-mm diameter pneumatic impactor(Air-Power Inc., High Point, NC) was used to deliver a single midline impact to the center of the disc surface. The impactor was discharged at 6.8 ± 0.2 m/second with a head displacement of 3 mm. After impact, the animals were allowed to recover spontaneous ventilation and then the tracheas were extubated. Mice were allowed free access to food and water. Sham mice were treated identically except for the absence of impact. All mice were housed in the same facility.
CN-105(Ac-VSRRR-amide) was synthesized by Polypeptide Inc.(San Diego, CA) to a purity of >99%, and was delivered in sterile normal saline. […] Vehicle treated animals received intravenous injection of 100 μL of normal saline at the same time points. Animals were assigned to treatment group by a coded study identification number after injury using a paper randomization protocol. A block randomization scheme was used, so that an equal number of animals were randomized to each of the treatment groups during concurrent experiments.
An automated Rotarod(Ugo Basile, Comerio, Italy) was used to assess vestibulomotor function. On the day prior to injury, mice(n = 11–12 mice per group) underwent one training trial at an accelerating rotational speed(4–40 rpm) for at least 200 seconds and then three additional test trials with the same accelerating rotational speed. The average time to fall from the rotating cylinder in the test trials was recorded as baseline latency. Mice were tested on consecutive days post-injury and received three consecutive daily trials with accelerating rotational speed(inter-trial interval = 15 minutes)(n = 10–12 mice). The average latency to fall from the rod was recorded. Mice unable to grasp the rotating rod were given a latency value of 0 seconds.

[2] = tested on: microglia in hippocampus of TBI injured mice; assay: F4/80 immunostained microglia, unbiased stereology; type: in vivo, mouse; details: 0.05 mg/kg, 10 days post TBI
Protocol: To assess the effects of CN-105 on inflammation, neuronal injury and neuronal loss, immunohistochemical(IHC) staining was performed using the F4/80 antibody(a marker for mature microglia and macrophages; rat monoclonal, 1:10,000; Serotec, Raleigh, NC) and the Fluoro-Jade B stain(a marker of degenerating neurons; Histo-Chem Inc. Jefferson, AR) on days 10 and 1, respectively, after TBI. IHC was performed on separate cohorts of mice from those used in neurobehavioral tests. As previously described, mice were anesthetized, euthanized, and perfused with 30 ml phosphate-buffered saline(PBS) via transcardiac puncture. The brains were then immersed in buffered formalin overnight and saturated with 30% sucrose in buffer. Sagittal sections(40 μm) were sliced on a freezing microtome and collected in cryoprotectant solution. […]
Prior to quantification, all slides were coded and the analyst was blinded to avoid experimenter bias. For the F4/80 quantification the brains of 5 TBI treated and 6 TBI vehicle treated mice(4–6 sections/mouse) were counted. Every eighth section of the dorsal hippocampus, according to the Paxinos and Franklin(2001) mouse brain atlas, was analyzed using the Stereo Investigator 7.0 software(MicroBrightField, Williston, VT). […] An average of 12 counting frames was analyzed per section, the grid size was 450 × 450 μm, and the dissector dimensions were 80 × 80 × 10 μm. […]

[3] = mouse, in vivo, iv, 1.92 mg/kg
Protocol: Pharmacokinetic studies were conducted by Xenobiotic Laboratories(Plainsboro, NJ). Briefly, male CD-1 mice received a single IV bolus dose of [^14C] CN-105 52 μCi/mg(dose of 1.92 mg/kg, and approximately 100 μCi/kg) by tail vein injection. At 0.083, 0.5, 1, 6, 24, and 48 hours post-dose terminal blood samples were collected from 2 animals per timepoint and plasma was isolated for radiometric analysis.
To assess CNS penetration, quantitative whole body autoradiography(QWBA) analysis was performed and areas of interest in blood and brain were compared. The carcasses were frozen in a dry ice/hexane bath and embedded in low viscosity carboxymethylcellulose for sagittal, 30-μm thick sections of low viscosity carboxymethylcellulose-of mouse carcasses were sectioned. Pharmacokinetic data were generated by non-compartmental PK analysis of total radioactivity concentration vs. time profiles for tissues using WinNonlin(version 6.3, Pharsight Corporation, Mountain View, CA).
Selected tissues and areas of interest(AOI) were analyzed using QWBA. The tissues and AOI were analyzed within AIDA software using a region sampling tool. The following parameters were derived for individual subjects: maximum tissue and plasma concentration(Cmax), time of Cmax(tmax), area under the tissue concentration versus time curve from time zero to the last quantifiable tissue concentration(AUC0-t), area under the tissue concentration versus time curve from time zero to 4 hours(AUC0-4), and the apparent terminal half-life(t½). AUC0-4 was calculated using the linear trapezoidal rule. Results for AOIs are expressed in nanogram equivalents of(^14C) CN-105 per gram of tissue(ng equv./g) and were calculated as follows: ng equiv./g is equal to nCi per gram of tissue per nCi/ng of(^14C) CN-105.

In the case of Ac-VSRRR-amide [CN-105], the “Rotarod functional performance compared to vehicle” value ([1]; 0.0125 mg/kg iv 2 h after TBI, p = 0.267) was “did not show robust improvement”, the “Rotarod functional performance compared to vehicle” value ([1]; 0.05 mg/kg iv 2 h after TBI, p = 0.011) was “improved functional performance” and the “Rotarod latency compared to vehicle” value ([1]; 0.05 mg/kg iv 4 hours post-injury) was “significant and durable improvement in Rotarod latency”. The “Rotarod functional performance compared to vehicle” value ([1]; 0.2 mg/kg iv 2 h after TBI, p = 0.023) was “improved functional performance”, the “Rotarod functional performance compared to vehicle” value ([1]; 0.8 mg/kg iv 2 h after TBI, p = 0.009) was “improved functional performance” and the “lowest effective dose resulting in improved functional performance” value ([1]; iv 2 h after TBI, Rotarod) was 0.05 mg/kg. For the same substance, the “effect of pretreatment on vestibulomotor and cognitive function” value ([1]; pretreatment 30 minutes prior to TBI, data not shown) was “no additional effects on vestibulomotor and cognitive function”, the “density of F4/80 microglia in dorsal hippocampus compared to vehicle” value ([2]; 5 treated and 6 vehicle mice, p = 0.0002) was “significant decrease in density of microglia” and the microglia morphology ([2]; hippocampus) was “almost exclusively small ramified microglia”. The initial plasma half-life [3] was 29 min, the tmax in serum [3] was 5 min and the “tmax in the brain” value [3] was 30 min.
